Entries after “also recorded” stand apart in the source; their conditions may differ.
Key:
human islets = assay: Glucose-stimulated insulin secretion of purified human cadaveric islets ex vivo; format: cell-based; settings: high glucose media; ELISA
Protocol: The islet tissue used in these studies was obtained with institutional review board approval. Pancreas digestion and islet isolation were performed using minor modifications of the Edmonton purification protocol. (Shapiro, […] al. “Islet […] in seven patients with type I diabetes mellitus using a glucocortoid-free immunosuppressive regimen.” New England Journal of Medicine 343(4):230-8, (2000)) The determination of islet cell mass, viability, and purity were also performed. Purified islets were cultured in CMRL 1066 culture media with 10% fetal bovine serum at 37° C. in humidified air (5% CO2) for 18 to 24 hours. The human islet insulin secretory response was performed according to a procedure described by the Edmonton group. (Id.) Briefly, after an overnight culture, islets were incubated with either low or high concentrations of glucose for 2 hours at 37° C. and 5% CO2. The supernatant was collected for insulin measurement. Insulin concentrations in these experiments were analyzed with a human insulin enzyme-linked immunosorbent assay (ELISA) kit (ALPCO Insulin ELISA kit, Windham, N.H.). In some experiments TBZ, DTBZ or epinephrine was added to the cultures before glucose stimulation.

[1] = tested on: dopamine content of brain and pancreas tissue; assay: Dopamine measurements in brain and pancreas extracts (ELISA); format: in vivo, rat
Protocol: Anaesthetized rats received an intravenous injection of TBZ and were sacrificed one hour later. Euthanasia was performed by exsanguination of the anesthetized animal. Brain and pancreas were harvested as quickly as possible and frozen at −80° C. until use. Frozen tissue was pulverized in a liquid nitrogen cooled mortar and extracted in 0.01 N HCl. The tissue extract was centrifuged at 10,000×g at 4° C. to remove debris and the total protein was estimated by reading the absorbance at 280 nm. The concentration of dopamine in the extract was estimated using an ELISA kit from Rocky Mountain Diagnostics (Colorado Springs, Colo.) per the manufacturer's instructions and normalized to the extract protein concentration.

Lewis rats [2] = assay: IPGTT of analogs HG-1 to HG-11, compounds given orally (FIG. 15); format: in vivo, rat; settings: 2 mg/kg orally; for decrease of the AUC IPGTT (area under the blood glucose concentration-time curve): 30 min before i.p. glucose, relative to vehicle, n=5
Protocol: FIG. 15 is a bar graph showing the results of testing various analogs HG-1 to HG-11 in IPGTT glucose tolerance tests in rats. Results for TBZ, emetine, and olanzapine are also shown. Lewis rats fasted for 6 hours were administered the compounds orally (30 min, 2 mg/kg) followed by intraperitoneal glucose injection (0 min, […]), and plasma glucose levels were monitored for 120 mins. Results are presented as AUC percentage of the vehicle. Error bars indicate SEM (n=5).
Racemic HG-2 and its diastereoisomer HG-1 were evaluated for their ability to improve glucose tolerance by performing intraperitoneal glucose tolerance tests (IPGTT) in rats. IPGTT testing is described above. See also Murthy, R., et al., Eur. J. Nucl. Med. Mol. Imaging, 2008, 35(4), 790-797.

Lewis rats [3] = assay: Plasma insulin and glucagon during IPGTT (ELISA); format: in vivo, rat
Protocol: (§1) Blood samples were collected from a superficial blood vessel in the tails of the rats following 6 hours of fasting between 12:00 noon and 2:00 p.m. The fasting blood glucose (BG) levels of the rats were measured using an Accu-Check blood glucose monitoring system (Roche Diagnostics, Sommerville, N.J.). Intraperitoneal glucose tolerance tests (IPGTT) were performed in 6 hour fasting un-anaesthetized animals. Briefly, after baseline BG measurements, animals received an intraperitoneal (i.p.) injection of 1 gram glucose/kilogram body weight. To minimize stress during the procedure, rats were handled by the same operator during acclimatization and later during weighing and IPGTT. Blood samples (approximately 30 μl) were collected at baseline and then again 15, 30, 60, 90, and 120 minutes following i.p. glucose administration. BG concentrations were measured immediately on these samples and the remainder processed.
(§2) Plasma was immediately separated by centrifugation at 3000×g for 15 minutes and then stored at −20° C. until analysis. Insulin and glucagon concentration measurements in rat plasma were performed by ELISA as per the manufacturer's instructions using kits from Linco Research Inc. (St. Charles, Mo.) and Alpco Diagnostics (Salem, N.H.), respectively. To validate the test, saline injections were performed by the same method. […] The area under the IPGTT glucose concentration×time curve (AUCIPGTT) was calculated by the trapezoidal rule. The area under the insulin or glucagon concentration×time curve (AUC INS or AUC GCG) was calculated in a similar manner.

Lewis rats [4] = assay: Intraperitoneal glucose tolerance test (IPGTT), compounds given i.v.; format: in vivo, rat
Protocol: (§3) All animal studies were reviewed and approved by the Institutional Animal Care and Use Committee (IACUC) at Columbia University's Medical School. All experiments were performed in accordance with the IACUC approved procedures. Normal male Lewis rats (100-400 grams) were obtained from Taconic (Taconic Inc., Germantown, N.Y.) and were housed under conditions of controlled humidity (55±5%), temperature (23±1° C.), and lighting (light on: 06.00-18.00 hours) with free access to standard laboratory rat chow and water. Rats were handled daily to minimize nonspecific stress for more than 7 days before the experiments began. In most experiments, it was necessary to measure blood glucose in fasting animals. For these groups, food was removed at the beginning of the light cycle, 6 hours before glucose levels were measured. Diabetes mellitus was induced by intraperitoneal injection of streptozotocin (Sigma Chemical Co., St. Louis, Mo.) (25 to 50 mg/kg) to animals (100 to 150 grams) that had been fasted 4 hours to enhance the effectiveness of STZ treatment.
The STZ solution was prepared fresh by dissolving it in 0.1 M citrate buffer (pH 5.5) and terminally sterile filtered. Control Lewis age and weight matched rats received a 0.5 ml/kg citrate vehicle alone via intraperitoneal injection. Sixty minutes prior to intraperitoneal glucose tolerance testing (IPGTT), anesthesia of male Lewis rats was induced with isoflurane (3-4% in oxygen) and maintained with 1-2% isoflurane in oxygen. Anaesthetized rats were administered TBZ and other indicated compounds at the indicated dose by intravenous (i.v.) injection using the penile vein. TBZ was dissolved in neat sterile dimethylsulfoxide (DMSO) and diluted (always more than 10 fold) in sterile saline. Rats received injections of vehicle alone (10% DMSO in saline) or reserpine (in saline). Animals recovered fully before receiving IPGTT.
as §1, §2
Anaesthetized rats were administered TBZ, THB, butamol, reserpine, emetine, or HG-6 at a dose of approximately 2-3 mg/kg body weight by intravenous (i.v.) injection using the penile vein. TBZ, THB, butamol, reserpine, emetine, and HG-6 were each separately dissolved in neat sterile dimethylsulfoxide (DMSO) and diluted (always more than 10 fold) in sterile saline. Rats received injections of vehicle alone (10% DMSO in saline) or reserpine (in saline). Animals recovered fully before receiving IPGTT. […]

diabetic Lewis rats = assay: IPGTT in streptozotocin-induced diabetic Lewis rats; format: in vivo, rat
Protocol: as §3, with “In most experiments, it was necessary to measure blood glucose in fasting animals.” left out, “Diabetes mellitus was induced by intraperitoneal injection of streptozotocin (Sigma Chemical Co., St. Louis, Mo.) (25 to 50 mg/kg) to animals (100 to 150 grams) that had been fasted 4 hours to enhance the effectiveness of STZ treatment.” left out
Blood samples were collected from a superficial blood vessel in the tails of the rats following 6 hours of fasting between 12:00 noon and 2:00 p.m. The fasting blood glucose (BG) levels of the rats were measured using an Accu-Check blood glucose monitoring system (Roche Diagnostics, Sommerville, N.J.). […] BG concentrations were measured immediately on these samples and the remainder processed.
Plasma was immediately separated by centrifugation at 3000×g for 15 minutes and then stored at −20° C. until analysis. […] The area under the IPGTT glucose concentration×time curve (AUCIPGTT) was calculated by the trapezoidal rule. […]

[5] = molecular target: T1, dipeptidyl peptidase IV (DDP-IV) (Homo sapiens, UniProt P27487); assay: Effect on dipeptidyl peptidase IV in vitro (BPS Bioscience assays); format: biochemical; settings: concentrations up to 10 μM; data not shown
T1 construct: purchased BPS Bioscience, Inc. (San Diego, Calif.)
T1 sequence (P27487 whole entry): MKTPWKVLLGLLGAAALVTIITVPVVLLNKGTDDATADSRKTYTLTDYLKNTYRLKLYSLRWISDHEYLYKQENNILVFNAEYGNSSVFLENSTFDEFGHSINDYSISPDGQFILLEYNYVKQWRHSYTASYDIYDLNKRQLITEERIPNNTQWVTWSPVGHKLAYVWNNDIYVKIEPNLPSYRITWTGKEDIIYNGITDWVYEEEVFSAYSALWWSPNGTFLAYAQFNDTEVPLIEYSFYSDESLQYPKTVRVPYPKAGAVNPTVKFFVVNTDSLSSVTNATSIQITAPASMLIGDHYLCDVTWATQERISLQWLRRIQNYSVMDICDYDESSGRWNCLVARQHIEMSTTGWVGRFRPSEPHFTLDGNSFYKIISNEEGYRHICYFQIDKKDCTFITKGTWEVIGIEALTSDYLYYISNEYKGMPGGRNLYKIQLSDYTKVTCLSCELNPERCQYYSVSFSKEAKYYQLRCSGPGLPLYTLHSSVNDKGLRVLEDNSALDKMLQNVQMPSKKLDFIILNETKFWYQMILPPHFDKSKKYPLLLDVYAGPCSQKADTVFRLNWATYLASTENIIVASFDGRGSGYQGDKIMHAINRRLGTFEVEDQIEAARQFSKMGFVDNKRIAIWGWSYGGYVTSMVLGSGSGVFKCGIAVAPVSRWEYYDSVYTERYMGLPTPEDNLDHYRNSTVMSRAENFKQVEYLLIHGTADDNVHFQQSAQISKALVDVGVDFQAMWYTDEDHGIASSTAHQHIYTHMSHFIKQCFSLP
Protocol: The effect of HG-3 on DDP-IV was determined by assays provided by BPS Bioscience, Inc. (San Diego, Calif.).

VMAT2 in beta cells = molecular target: T2, VMAT2 in beta cells (Rattus norvegicus, UniProt Q01827); assay: PET study: displacement of [11C]DTBZ in the pancreas by cold analog; format: in vivo; settings: cold compound 2 mg/kg injected 30 min after radioligand; relative to DTBZ
T2 construct: from tissue; host or cells: pancreas (beta cells) of living Lewis rats
T2 sequence (Q01827 whole entry): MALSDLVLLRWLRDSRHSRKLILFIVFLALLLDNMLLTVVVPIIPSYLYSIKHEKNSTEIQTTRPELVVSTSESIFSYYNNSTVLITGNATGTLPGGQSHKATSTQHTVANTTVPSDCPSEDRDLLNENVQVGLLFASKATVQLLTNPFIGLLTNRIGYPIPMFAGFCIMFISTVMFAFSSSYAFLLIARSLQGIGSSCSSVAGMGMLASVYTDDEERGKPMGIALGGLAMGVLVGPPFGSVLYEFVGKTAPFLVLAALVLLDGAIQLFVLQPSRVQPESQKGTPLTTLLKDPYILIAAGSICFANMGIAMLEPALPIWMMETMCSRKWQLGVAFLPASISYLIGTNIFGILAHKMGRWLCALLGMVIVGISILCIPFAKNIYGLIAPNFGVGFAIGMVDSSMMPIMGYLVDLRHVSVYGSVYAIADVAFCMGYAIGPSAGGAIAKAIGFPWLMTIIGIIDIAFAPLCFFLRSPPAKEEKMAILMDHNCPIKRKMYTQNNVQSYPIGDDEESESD
Protocol: PET scans were performed on anesthetized 12-14 week old Lewis male rats injected with radioligand [^11C]DTBZ (0 min, 0.5-1.0 μCi/gm body weight, specific activity >[…]) and cold compound 8 (HG-3) (30 mins, 2 mg/kg). The fraction of radioligand in the pancreas relative to the total amount injected was calculated and plotted versus time after injection. Error bars indicate SEM (n=3).
To test binding to VMAT2 in beta cells, PET scans were performed on 12-14 week old Lewis Male rats. Prior to imaging, the animals were anesthetized by isoflurane inhalation. After a transmission scan of the area of interest had been acquired (used to perform attenuation correction of the emission data), the radioligand [11C]DTBZ was administered (0.5-1.0 μCi/gm) in saline as bolus injection via the penile vein. PET scans of the animals were acquired dynamically to 90 min post injection on a Concorde microPET-R4 (CTI Molecular Imaging, Knoxville, Tenn., USA). The scanner provided a 100×80 mm field of view with a reconstructed resolution of 2.25 mm in the central 40 mm of the field of view. At thirty minutes post injection of [11C]DTBZ, the animals received a second injection via the penile vein of cold analog. […]

COc1cc2c(cc1OC)[C@@H]1C[C@H](O)[C@@H](CC(C)C)CN1CC2 [DTBZ, dihydrotetrabenazine]
insulin secretion by human islets after stimulation by high concentrations of glucose (human islets): significantly enhanced the amount of insulin secreted; also recorded: enhances glucose-stimulated insulin secretion

CNC[C@H](O)c1ccc(O)c(O)c1 [epinephrine, L-epinephrine bitartrate]
insulin secretion by human islets after stimulation by high concentrations of glucose (human islets): inhibited secretion of insulin

COc1cc2c(cc1OC)[C@@H]1CC(=O)[C@@H](CC(C)C)CN1CC2 [TBZ, tetrabenazine]
dopamine content of brain and pancreas tissue ([1]; TBZ 1.6 μg/gm body weight i.v., one hour later, normalized to total protein): reduces the dopamine content of brain and pancreas tissue | dopamine content of pancreas and brain ([1]; one hour after injection of 10 μg/gm body weight of tetrabenazine): significantly depleted the dopamine content of pancreas and brain | decrease of the AUC IPGTT (area under the blood glucose concentration-time curve) (Lewis rats [2]): 26% | glucose-stimulated insulin and glucagon secretion in vivo (Lewis rats [3]; TBZ 1.6 μg/gm, Lewis rats 9-11 week old, during IPGTT): alters glucose-stimulated insulin and glucagon secretion in vivo | plasma insulin levels relative to vehicle treated controls (Lewis rats [3]; following TBZ and glucose challenge): greater | plasma glucagon levels relative to controls (Lewis rats [3]; following i.v. TBZ administration and glucose challenge): generally lower | AUC INS with TBZ treatment relative to AUC INS of control animals (Lewis rats [3]; four out of five experiments): greater than two fold | baseline plasma concentrations of glucagon (Lewis rats [3]; prior to glucose challenge): sometimes lower than controls, although these differences did not reach statistical significance | AUC GCG, less than AUC GCG of control animals (Lewis rats [3]; three of five experiments): 75%-85% | AUC Blood Glucose IPGTT (Lewis rats [4]; 2 mg/kg (2.0 μg/gbw) i.v.): smaller area under the curve; also recorded: lower than that for vehicle and butamol treated animals | blood glucose excursion during IPGTT (Lewis rats [4]; 2 mg/kg body weight i.v., Lewis rats 9-11 weeks old, vs vehicle (DMSO)): reduced the blood glucose excursion | blood glucose excursion during IPGTT (Lewis rats [4]; 2 mg/kg body weight i.v., Lewis rats 9-11 weeks old, vs vehicle (DMSO), listed as Tetrabenazine): reduced the blood glucose excursion | blood glucose excursion during IPGTT (Lewis rats [4]; Lewis rats 9-11 week old, TBZ 1.6 μg/gm body weight i.v., vs vehicle): reduces the blood glucose excursion | blood glucose excursion during IPGTT (Lewis rats [4]; Lewis rats 9-11 week old, TBZ 1.6 μg/gm body weight i.v., vs vehicle, listed as tetrabenazine): significant change in the size and shape of the glucose disposition curve | reduction of the glucose excursion (areas under the curve during IPGTT) (Lewis rats [4]; TBZ 1.6 μg/gbw): 40-50% | AUC IPGTT of controls compared with TBZ treated animals (Lewis rats [4]; TBZ 1.6 μg/gm, series of experiments n=4, p<0.05): significantly higher | baseline fasting glucose concentration (Lewis rats [4]; after TBZ administration, before glucose challenge, data not shown): no reproducible differences were observed | blood glucose levels around sixty minutes following glucose challenge (Lewis rats [4]; i.v. injection at 2 mg/kg body weight): returned to control or near normal levels | blood glucose excursion during IPGTT (Lewis rats [4]; single dose 2-3 mg/kg body weight i.v., FIG. 12): consistently reduced the blood glucose excursion | area under the curve from glucose tolerance tests (Lewis rats [4]; single dose 2-3 mg/kg body weight i.v., FIG. 12, each series a separate experiment): consistently suppressed the area under the curve; also recorded: depress the area under the curve | dose dependence of AUC IPGTT (Lewis rats [4]; varying doses of TBZ, normalized to each animal's untreated baseline IPGTT): complex dose response effect; also recorded: reduces the blood glucose excursion in a dose dependent manner | blood glucose excursion / area under the curve in IPGTT, diabetic rats (diabetic Lewis rats; STZ-diabetic Lewis rats 5-8 weeks, TBZ 1.6 μg/gm i.v.): smaller area under the curve; also recorded: reduces the blood glucose excursion during IPGTT in diabetic Lewis rats | blood glucose levels before i.p. glucose challenge, diabetic rats (diabetic Lewis rats; around sixty minutes following i.v. injection of TBZ): returned to control or near normal levels

COc1ccc(C2CC(OCC(C)C)=CC(=O)N2)cc1OC (stereo not drawn) [HG-3, 6-(3,4-dimethoxyphenyl)-4-isobutoxy-5,6-dihydropyridin-2(1H)-one]
decrease of the AUC IPGTT (area under the blood glucose concentration-time curve) (Lewis rats [2]): 45% | hypoglycemic activity in IPGTT compared with TBZ / HG-3 (Lewis rats [2]; FIG. 15): potent hypoglycemic effect; also recorded: significant decrease in blood glucose levels as compared to TBZ | effect on DDP-IV in vitro [5]: negative | displacement of [11C]DTBZ in the endocrine pancreas / binding to VMAT2 (VMAT2 in beta cells): did not significantly displace

COc1ccc(C2CC(O)C(CC(C)C)C(=O)N2)cc1OC (stereo not drawn) [HG-4]
displacement of [11C]DTBZ in the endocrine pancreas / binding to VMAT2 (VMAT2 in beta cells): weak binding

— patent US9260391B2, “Hypoglycemic dihydropyridones” (The Trustees of Columbia University in the City of New York, priority 2008, dated 2016)
